From US20210040118A1, “IMMUNOMODULATORS, COMPOSITIONS AND METHODS THEREOF” (BETTA PHARMACEUTICALS CO., LTD, priority 2018, published 2021)

Molecular target: T1, PD-1/PD-L1 (Homo sapiens, UniProt Q9NZQ7)
T1 construct: Recombinant human PD-L1 protein (19-238) with a His-tag at the C-terminus; purchased AcroBiosystems PD1-H5229 (PD-L1); PD1-H5257 (PD-1)
Experiment: PD-1/PD-L1 homogenous time-resolved fluorescence (HTRF) binding assay
Settings: recombinant human PD-L1 (19-238) His-tag / human PD-1 (25-167) Fc tag, class symbols
Protocol: Resolved Fluorescence (HTRF) Binding Assay
The assays were conducted in a standard black 384-well polystyrene plate with a final volume of 20 μL. Inhibitors were first serially diluted in DMSO and then added to the plate wells before the addition of other reaction components. The final concentration of DMSO in the assay was 1%. The assays were carried out at 25° C. in the PBS buffer (pH 7.4) with 0.05% Tween-20 and 0.1% BSA. Recombinant human PD-L1 protein (19-238) with a His-tag at the C-terminus was purchased from AcroBiosy stems (PD1-H5229). Recombinant human PD-1 protein (25-167) with Fc tag at the C-terminus was also purchased from AcroBiosystems (PD1-H5257). PD-L1 and PD-1 proteins were diluted in the assay buffer and 10 μL was added to the plate well. Plates were centrifuged and proteins were preincubated with inhibitors for 40 min. The incubation was followed by the addition of […] of HTRF detection buffer supplemented with Europium cryptate-labeled anti-human IgG (PerkinElmer-AD0212) specific for Fc and anti-His antibody conjugated to SureLight®-Allophycocyanin (APC, PerkinElmer-AD0059H). After centrifugation, the plate was incubated at 25° C. for 60 min. Before reading on a PHERAstar FS plate reader (665 nm/620 nm ratio). Final concentrations in the assay were […] PD1, 10 nM PD-L1, 1 nM europium anti-human IgG and 20 nM anti-His-Allophycocyanin. IC50 determination was performed by fitting the curve of percent control activity versus the log of the inhibitor concentration using the GraphPad Prism 5.0 software.
Data obtained for the Example compounds using the PD-1/PD-L1 homogenous time-resolved fluorescence (HTRF) binding assay described in Example A is provided in Table 4.

T1 sequence (Q9NZQ7 19-238): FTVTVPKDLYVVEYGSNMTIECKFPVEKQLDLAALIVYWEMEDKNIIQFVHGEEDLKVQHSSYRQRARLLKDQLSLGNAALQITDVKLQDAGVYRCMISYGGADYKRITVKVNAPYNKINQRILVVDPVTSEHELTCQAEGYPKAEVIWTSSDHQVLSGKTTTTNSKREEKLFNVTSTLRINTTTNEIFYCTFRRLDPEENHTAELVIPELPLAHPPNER

`Cc1c(NC(=O)c2cn3c(n2)CNCC3)cccc1-c1cccc(NC(=O)c2cc3c(s2)CNCC3)c1C` [Example 42, N-(2,2′-dimethyl-3′-(5,6,7,8-tetrahydroimidazo[1,2-a]pyrazine-2-carboxamido)-[1,1′-biphenyl]-3-yl)-4,5,6,7-tetrahydrothieno[2,3-c]pyridine-2-carboxamide] and `NC(=O)NCCN1CCc2nc(C(=O)N3CCc4c(-c5cccc6c5CCN6C(=O)c5nc6c(s5)CN(CCNC(N)=O)CC6)cccc43)sc2C1` [Example 134, 1,1′-((([4,4′-biindoline]-1,1′-dicarbonyl)bis(6,7-dihydrothiazolo[5,4-c]pyridine-2,5(4H)-diyl))bis(ethane-2,1-diyl))diurea] cannot be ordered by IC50: < 25 nM for the first, < 25 nM for the second.

`Cc1c(NC(=O)c2nc3c(o2)CNCC3)cccc1-c1cccc(NC(=O)c2nc3c(s2)CNCC3)c1C` [Example 14, N-(2,2′-dimethyl-3′-(4,5,6,7-tetrahydrothiazolo[5,4-c]pyridine-2-carboxamido)-[1,1′-biphenyl]-3-yl)-4,5,6,7-tetrahydrooxazolo[5,4-c]pyridine-2-carboxamide] and `Cc1c(NC(=O)c2nc3c(s2)CNCCC3)cccc1-c1cccc(NC(=O)c2nc3c(s2)CNCCC3)c1C` [Example 30, N,N′-(2,2′-dimethyl-[1,1′-biphenyl]-3,3′-diyl)bis(5,6,7,8-tetrahydro-4H-thiazolo[5,4-c]azepine-2-carboxamide)] cannot be ordered by IC50: < 25 nM for the first, < 25 nM for the second.

`COC(=O)N[C@H](C(=O)N1CCc2nc(C(=O)Nc3cccc(-c4cccc(NC(=O)c5ccc6c(n5)CCN(C(=O)[C@@H](NC(=O)OC)C(C)C)C6)c4C)c3C)ccc2C1)C(C)C` [Example 169, dimethyl ((2S,2'S)-((((2,2′-dimethyl-[1,1′-biphenyl]-3,3′-diyl)bis(azanediyl))bis(carbonyl))bis(7,8-dihydro-1,6-naphthyridine-2,6(5H)-diyl))bis(3-methyl-1-oxobutane-1,2-diyl))dicarbamate] and `Cc1c(NC(=O)c2cn3c(n2)CNCC3)cccc1-c1cccc(NC(=O)c2cc3c(s2)CCNC3)c1C` [Example 35, N-(2,2′-dimethyl-3′-(5,6,7,8-tetrahydroimidazo[1,2-a]pyrazine-2-carboxamido)-[1,1′-biphenyl]-3-yl)-4,5,6,7-tetrahydrothieno[3,2-c]pyridine-2-carboxamide] cannot be ordered by IC50: < 25 nM for the first, < 25 nM for the second.

`Cc1c(NC(=O)c2ccc3c(n2)CCNC3)cccc1-c1cccc(NC(=O)c2ccc3c(n2)CCN(CCO)C3)c1C` [Example 186, N-(2,2′-dimethyl-3′-(5,6,7,8-tetrahydro-1,6-naphthyridine-2-carboxamido)-[1,1′-biphenyl]-3-yl)-6-(2-hydroxyethyl)-5,6,7,8-tetrahydro-1,6-naphthyridine-2-carboxamide] and `Cc1c(NC(=O)c2nc3c(s2)CNCC3)cc(F)cc1-c1cccc2c1CCN2C(=O)c1nc2c(s1)CNCC2` [Example 95, N-(5-fluoro-2-methyl-3-(1-(4,5,6,7-tetrahydrothiazolo[5,4-c]pyridine-2-carbonyl)indolin-4-yl)phenyl)-4,5,6,7-tetrahydrothiazolo[5,4-c]pyridine-2-carboxamide] cannot be ordered by IC50: < 25 nM for the first, < 25 nM for the second.

First: CN(C)C(=O)CN1CCc2nc(C(=O)N3CCc4c(-c5cccc6c5CCN6C(=O)c5nc6c(s5)CN(CC(=O)O)CC6)cccc43)sc2C1 [Example 109, 2-(2-(1′-(5-(2-(dimethylamino)-2-oxoethyl)-4,5,6,7-tetrahydrothiazolo[5,4-c]pyridine-2-carbonyl)-[4,4′-biindoline]-1-carbonyl)-6,7-dihydrothiazolo[5,4-c]pyridin-5(4H)-yl)acetic acid]
Second: Cc1c(NCc2nc3c(s2)CNCC3)cccc1-c1cccc(NCc2nc3c(s2)CNCC3)c1C [Example 25, 2,2′-dimethyl-N3,N3′-bis((4,5,6,7-tetrahydrothiazolo[5,4-c]pyridin-2-yl)methyl)-[1,1′-biphenyl]-3,3′-diamine]
The IC50 of the first is lower: < 25 nM for the first, 25 to 100 nM for the second.

`CS(=O)(=O)NCCN1CCc2nc(C(=O)N3CCc4c(-c5cccc6c5CCN6C(=O)c5nc6c(s5)CN(CCNS(C)(=O)=O)CC6)cccc43)sc2C1` [Example 117, N,N′-((([4,4′-biindoline]-1,1′-dicarbonyl)bis(6,7-dihydrothiazolo[5,4-c]pyridine-2,5(4H)-diyl))bis(ethane-2,1-diyl))dimethanesulfonamide] and `Cc1c(NC(=O)c2nc3c(s2)CN(CCCC(=O)O)CC3)cccc1-c1cccc(NC(=O)c2nc3c(s2)CN(CCCC(=O)O)CC3)c1C` [Example 78, 4,4′-((((2,2′-dimethyl-[1,1′-biphenyl]-3,3′-diyl)bis(azanediyl))bis(carbonyl))bis(6,7-dihydrothiazolo[5,4-c]pyridine-2,5(4H)-diyl))dibutyric acid] cannot be ordered by IC50: < 25 nM for the first, < 25 nM for the second.

“1,1′-bis((6,7-dihydro-4H-512-thiazolo[5,4-c]pyridin-2-yl)methyl)-4,4′-biindoline [Example 46]” and `Cc1c(NC(=O)c2nnc([C@@H]3CCCN3)s2)cccc1-c1cccc(NC(=O)c2nnc([C@@H]3CCCN3)s2)c1C` [Example 3, N,N′-(2,2′-dimethyl-[1,1′-biphenyl]-3,3′-diyl)bis(5-((S)-pyrrolidin-2-yl)-1,3,4-thiadiazole-2-carboxamide)] cannot be ordered by IC50: < 25 nM for the first, < 25 nM for the second.

`CC(C(=O)NS(C)(=O)=O)N1CCc2nc(C(=O)N3CCc4c(-c5cccc6c5CCN6C(=O)c5nc6c(s5)CN(C(C)C(=O)NS(C)(=O)=O)CC6)cccc43)sc2C1` (centres unmarked) [Example 127, 2,2′-(([4,4′-biindoline]-1,1′-dicarbonyl)bis(6,7-dihydrothiazolo[5,4-c]pyridine-2,5(4H)-diyl))bis(N-(methylsulfonyl)propanamide)] and `Cc1c(NC(=O)c2nc3c(s2)CN(CC(=O)O)CC3)cccc1-c1cccc(NC(=O)c2nc3c(s2)CN(CC(=O)O)CC3)c1C` [Example 4, 2,2′-((((2,2′-dimethyl-[1,1′-biphenyl]-3,3′-diyl)bis(azanediyl))bis(carbonyl))bis(6,7-dihydrothiazolo[5,4-c]pyridine-2,5(4H)-diyl))diacetic acid] cannot be ordered by IC50: < 25 nM for the first, < 25 nM for the second.

`Cc1nc(C(=O)Nc2cccc(-c3cccc4c3CCN4C(=O)c3nc(C)c(CN[C@H](C(=O)O)C4CCOCC4)s3)c2C)sc1CN[C@H](C(=O)O)C1CCOCC1` [Example 59, (S)-2-((2-(3-(1-(5-(((S)-carboxy(tetrahydro-2H-pyran-4-yl)methylamino)methyl)-4-methylthiazole-2-carbonyl)indolin-4-yl)-2-methylphenylcarbamoyl)-4-methylthiazol-5-yl)methylamino)-2-(tetrahydro-2H-pyran-4-yl)acetic acid] and `Cc1c(NC(=O)c2nnc3n2CCNC3)cccc1-c1cccc(NC(=O)c2nnc3n2CCNC3)c1C` [Example 39, N,N′-(2,2′-dimethyl-[1,1′-biphenyl]-3,3′-diyl)bis(5,6,7,8-tetrahydro-[1,2,4]triazolo[4,3-a]pyrazine-3-carboxamide)] cannot be ordered by IC50: < 25 nM for the first, < 25 nM for the second.

`CN(C)C(=O)CN1CCc2nc(C(=O)N3CCc4c(-c5cccc6c5CCN6C(=O)c5nc6c(s5)CN(CC(=O)N(C)C)CC6)cccc43)sc2C1` [Example 106, 2,2′-(([4,4′-biindoline]-1,1′-dicarbonyl)bis(6,7-dihydrothiazolo[5,4-c]pyridine-2,5(4H)-diyl))bis(N,N-dimethylacetamide)] and `COC(=O)NCCNCc1cnc2c(Nc3cccc(-c4cccc5c4CCN5C(=O)C4=NC5CCN(CC(=O)O)CC5S4)c3C)nccc2c1` (centres unmarked) [Example 159, 2-(2-(4-(3-((3-(((2-((methoxycarbonyl)amino)ethyl)amino)methyl)-1,7-naphthyridin-8-yl)amino)-2-methylphenyl)indoline-1-carbonyl)-3a,6,7,7a-tetrahydrothiazolo[5,4-c]pyridin-5(4H)-yl)acetic acid] cannot be ordered by IC50: < 25 nM for the first, < 25 nM for the second.

With `Cc1c(Nc2nccc3cc(CN[C@@H](C)C(=O)O)cnc23)cccc1-c1cccc2c1CCN2C(=O)C1=NC2CCN(CC(=O)O)CC2S1` (some centres unmarked) [Example 163, ((8-((3-(1-(5-(carboxymethyl)-3a,4,5,6,7,7a-hexahydrothiazolo[5,4-c]pyridine-2-carbonyl)indolin-4-yl)-2-methylphenyl)amino)-1,7-naphthyridin-3-yl)methyl)alanine] the IC50 was < 25 nM.

Same assay, conditions: recombinant human PD-L1 (19-238) His-tag / human PD-1 (25-167) Fc tag, numeric values

In order of falling IC50:
1. Cc1c(NC(=O)c2nc3c(s2)CNCC3)cccc1-c1cccc(NC(=O)c2nc3c(s2)CNCC3)c1C [Example 1, N,N′-(2,2′-dimethyl-[1,1′-biphenyl]-3,3′-diyl)bis(4,5,6,7-tetrahydrothiazolo[5,4-c]pyridine-2-carboxamide)]  0.48 nM
2. O=C(c1nc2c(s1)CNCC2)N1CCc2c(-c3cccc4c3CCN4C(=O)c3nc4c(s3)CNCC4)cccc21 [Example 33, [4,4′-biindoline]-1,1′-diylbis((4,5,6,7-tetrahydrothiazolo[5,4-c]pyridin-2-yl)methanone)]  0.21 nM
